Tests used:
[1] = test system: subcutaneous tumor model mice (B×PC3); assay: Antitumor effect on tumor-bearing mice; assay type: in vivo; conditions: 1.5 mg/kg intraperitoneally
Experimental: A Val-encapsulating polymeric micelle solution prepared by using PEG-P(Asp-BH) (administration amount of Val: 1.5 mg/kg), a valinomycin solution (1.5 mg/kg), or a gemcitabine solution (80 mg/kg) was intravenously administered (only the valinomycin solution was intraperitoneally administered) to the tail vein of subcutaneous tumor model mice (B×PC3) on day 0, day 2, and day 4, and the sizes of the tumors and the body weights of the mice after lapses of various times were measured (n=4).

[2] = test system: BxPC3; assay: Toxicity test against cultured cells (CCK-8); assay type: cell-based; conditions: Homo sapiens, BXPC-3, 48 hours, Val concentration, cell survival by CCK-8
Experimental: (§1) Human pancreatic adenocarcinoma cells (B×PC3 cells, Panc-cells, or MiaPaCa cells) were seeded into a 96-well plate (5,000 cells/well). After 24 hours, a Val-encapsulating polymeric micelle solution prepared by adding 0.3 equivalent of Val to PEG-P(Asp-BH) or Val alone was added at various Val concentrations. After 48 hours, the cells were washed with PBS, and a medium was added. After that, Cell Counting Kit-8 (CCK-8, 10 μL/well) was added to the medium, and 30 minutes later, UV absorbance at 450 nm was measured.

[3] = test system: MiaPaCa; assay: Toxicity test against cultured cells (CCK-8); assay type: cell-based; conditions: Homo sapiens, MIA PaCa-2, 48 hours, Val concentration, cell survival by CCK-8
Experimental: as §1

[4] = test system: PANC-1; assay: Toxicity test against cultured cells (CCK-8); assay type: cell-based; conditions: Homo sapiens, 48 hours, Val concentration, cell survival by CCK-8
Experimental: as §1

## CC(C)[C@@H]1NC(=O)[C@H](C)OC(=O)[C@@H](C(C)C)NC(=O)[C@@H](C(C)C)OC(=O)[C@H](C(C)C)NC(=O)[C@H](C)OC(=O)[C@@H](C(C)C)NC(=O)[C@@H](C(C)C)OC(=O)[C@H](C(C)C)NC(=O)[C@H](C)OC(=O)[C@@H](C(C)C)NC(=O)[C@@H](C(C)C)OC1=O [Val, valinomycin]
[1]
  death of all the mice, time after the initial administration: ≤ 24 h
[2]
  IC50: 0.0125 µM
[3]
  IC50: 0.0232 µM
[4]
  IC50: 0.0083 µM
